The target of one assay is T1, mCRT(1-351) (Mus musculus, UniProt P14211).
T1 sequence (P14211 18-368): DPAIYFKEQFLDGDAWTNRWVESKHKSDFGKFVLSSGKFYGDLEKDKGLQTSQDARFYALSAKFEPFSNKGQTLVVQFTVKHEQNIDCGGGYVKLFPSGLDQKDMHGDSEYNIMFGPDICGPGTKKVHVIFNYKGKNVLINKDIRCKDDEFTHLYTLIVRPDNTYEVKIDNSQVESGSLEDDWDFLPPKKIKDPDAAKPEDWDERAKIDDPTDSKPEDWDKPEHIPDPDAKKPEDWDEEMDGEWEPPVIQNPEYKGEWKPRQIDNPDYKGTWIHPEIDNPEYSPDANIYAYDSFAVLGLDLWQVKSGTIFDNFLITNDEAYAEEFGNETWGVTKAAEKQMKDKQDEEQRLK
The assay can be described thus: isothermal titration calorimetry, lipid vesicles titrated into […] protein. In kind it is binding. For orientation: In ITC the heat of successive injections is recorded.

The target in a further assay is T2, mCRT(WT) (Mus musculus, UniProt P14211).
T2 sequence (P14211 18-416): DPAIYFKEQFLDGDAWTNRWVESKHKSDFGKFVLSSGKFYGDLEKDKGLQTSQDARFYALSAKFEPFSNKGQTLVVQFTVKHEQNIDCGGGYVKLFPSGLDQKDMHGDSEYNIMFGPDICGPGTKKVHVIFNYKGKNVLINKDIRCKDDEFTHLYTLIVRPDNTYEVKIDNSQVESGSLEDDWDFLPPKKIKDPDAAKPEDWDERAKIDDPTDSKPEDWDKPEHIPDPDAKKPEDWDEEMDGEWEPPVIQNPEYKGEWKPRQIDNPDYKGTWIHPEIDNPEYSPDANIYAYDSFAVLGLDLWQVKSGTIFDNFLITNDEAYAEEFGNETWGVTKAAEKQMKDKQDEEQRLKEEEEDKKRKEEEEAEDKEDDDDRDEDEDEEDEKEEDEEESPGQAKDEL
The description is as above. The assay is classed as binding.

Another assay concerns the target T3, mCRT(ΔP) (Mus musculus, UniProt P14211, DEL204-300).
T3 sequence (P14211 with tags, fused parts or gaps DEL204-300): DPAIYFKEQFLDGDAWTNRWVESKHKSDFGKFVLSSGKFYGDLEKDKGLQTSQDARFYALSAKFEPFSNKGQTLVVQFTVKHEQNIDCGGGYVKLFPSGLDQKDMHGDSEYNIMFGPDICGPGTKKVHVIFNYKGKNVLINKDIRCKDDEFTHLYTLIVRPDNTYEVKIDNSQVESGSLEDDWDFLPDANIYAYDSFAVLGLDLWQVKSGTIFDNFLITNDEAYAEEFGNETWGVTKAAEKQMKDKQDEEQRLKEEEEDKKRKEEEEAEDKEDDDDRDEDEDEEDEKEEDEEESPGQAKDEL
The assay is described as above. In kind it is binding.

The next assay addresses T4, mCRT(1-351 ΔP) (Mus musculus, UniProt P14211, DEL204-300).
T4 sequence (P14211 with tags, fused parts or gaps DEL204-300): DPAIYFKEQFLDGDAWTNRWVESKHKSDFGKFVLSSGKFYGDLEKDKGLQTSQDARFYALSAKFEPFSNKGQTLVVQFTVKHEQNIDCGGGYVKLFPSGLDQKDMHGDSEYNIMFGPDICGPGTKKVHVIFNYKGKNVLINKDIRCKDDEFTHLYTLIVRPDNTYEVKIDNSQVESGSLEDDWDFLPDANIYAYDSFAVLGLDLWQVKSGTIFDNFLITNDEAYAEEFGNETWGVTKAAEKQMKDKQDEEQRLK
The description is as above. The assay is classed as binding.

For assay [1], the target named is GB1-mCRT(P), the P-domain of murine calreticulin (residues 187-283) fused with the B1 domain of protein G (mouse). The assay can be described thus: BLI.
For the next assay, the target named is T5, GB1-mCRT(C) (Mus musculus, UniProt P14211).
T5 sequence (P14211 357-416): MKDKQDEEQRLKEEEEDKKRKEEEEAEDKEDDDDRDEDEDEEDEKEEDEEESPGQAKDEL
The assay can be described thus: isothermal titration calorimetry, lipid vesicles titrated into […] protein. In kind it is binding.

For a further assay, the target named is T6, ERp57 (UniProt P30101 25-505).
T6 sequence (looked up): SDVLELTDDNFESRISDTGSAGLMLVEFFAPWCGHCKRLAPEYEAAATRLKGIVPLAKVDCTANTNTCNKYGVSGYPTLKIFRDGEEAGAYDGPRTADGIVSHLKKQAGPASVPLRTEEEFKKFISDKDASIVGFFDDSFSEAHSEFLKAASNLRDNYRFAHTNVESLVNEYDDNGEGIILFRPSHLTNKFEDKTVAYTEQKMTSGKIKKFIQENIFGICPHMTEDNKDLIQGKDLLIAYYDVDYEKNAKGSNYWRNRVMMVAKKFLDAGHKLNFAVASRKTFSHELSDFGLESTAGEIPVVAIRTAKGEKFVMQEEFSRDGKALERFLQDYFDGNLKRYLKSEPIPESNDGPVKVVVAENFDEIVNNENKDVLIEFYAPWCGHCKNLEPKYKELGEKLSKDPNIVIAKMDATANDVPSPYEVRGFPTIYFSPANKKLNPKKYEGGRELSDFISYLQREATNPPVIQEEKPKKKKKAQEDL
The assay can be described thus: BLI. In general terms: Biolayer interferometry detects binding as a change in optical thickness at a sensor tip.

Usually Kd stands for the equilibrium constant for the complex coming apart. The low end stands for a tighter complex, the high end for a looser complex. Take `CCCCCCCC/C=C\CCCCCCCC(=O)O[C@H](COC(=O)CCCCCCCCCCCCCCC)COP(=O)([O-])OCC[N+](C)(C)C` [POPC]: the Kd on mCRT(1-351) is 53.4 ± 13.8 µM; on mCRT(WT), 158 ± 37.3 µM; on mCRT(ΔP) it was 92.5 ± 11 µM; at mCRT(1-351 ΔP) it was 42.6 ± 11.5 µM.
In assay [1], “ERp57 (from UniProt P30101 25-505) (natural protein)” returned a Kd of 0.101 µM.
As for `CCCCCCCC/C=C\CCCCCCCC(=O)O[C@H](COC(=O)CCCCCCCCCCCCCCC)COP(=O)(O)OC[C@H](N)C(=O)O` [POPS], the Kd at GB1-mCRT(C) stood at 28.2 ± 4.3 µM; on mCRT(1-351), 32 ± 5.54 µM; at mCRT(WT), 12.1 ± 4.49 µM; on mCRT(ΔP) it was 7.5 ± 5.69 µM; on mCRT(1-351 ΔP), 20.2 ± 4.08 µM.

B1: wild type murine calreticulin, mCRT(WT) (natural protein, mouse, UniProt P14211 18-416, looked up)
chain: DPAIYFKEQFLDGDAWTNRWVESKHKSDFGKFVLSSGKFYGDLEKDKGLQTSQDARFYALSAKFEPFSNKGQTLVVQFTVKHEQNIDCGGGYVKLFPSGLDQKDMHGDSEYNIMFGPDICGPGTKKVHVIFNYKGKNVLINKDIRCKDDEFTHLYTLIVRPDNTYEVKIDNSQVESGSLEDDWDFLPPKKIKDPDAAKPEDWDERAKIDDPTDSKPEDWDKPEHIPDPDAKKPEDWDEEMDGEWEPPVIQNPEYKGEWKPRQIDNPDYKGTWIHPEIDNPEYSPDANIYAYDSFAVLGLDLWQVKSGTIFDNFLITNDEAYAEEFGNETWGVTKAAEKQMKDKQDEEQRLKEEEEDKKRKEEEEAEDKEDDDDRDEDEDEEDEKEEDEEESPGQAKDEL
As to B1, binding with ERp57 was put at a Kd of 0.282 ± 0.038 µM.
